# What was measured:
# late watergrass = assay: Test Example 1: herbicidal activity, application before weed generation under submerged conditions (Table 16, symbol A); format: in vivo, late watergrass (Echinochloa oryzicola)
# Method in brief: (§1)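 Alluvial soil was flooded to 4 cm depth, weed seeds were sown mixed and 2.5-leaf rice seedlings were transplanted. On sowing day, the compound's emulsion, diluted in water to a set dose, was applied to the water surface. Plants grew at 25–30 °C and were scored 0–5 after three weeks.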
# Japanese bulrush = assay: Test Example 1: herbicidal activity, application before weed generation under submerged conditions (Table 16, symbol B); format: in vivo, Japanese bulrush (Schoenoplectus juncoides)
# Method in brief: as §1
# oval-leafed pondweed = assay: Test Example 1: herbicidal activity, application before weed generation under submerged conditions (Table 16, symbol C); format: in vivo, oval-leafed pondweed (Monochoria vaginalis)
# Method in brief: as §1
# barnyard grass [1] = assay: Test Example 3: herbicidal effect by foliage application, Wagner pot (Table 18, symbol H); format: in vivo, barnyard grass (Echinochloa crus-galli)
# Method in brief: (§2)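 Plants were sown in alluvial soil held under 0.1–0.5 cm standing water and grown 14 days in a greenhouse at 25–30 °C. An emulsifiable formulation, water-diluted to the set dose, was then sprayed onto the foliage, and effects were scored three weeks later using previously defined criteria.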
# Chinese sprangletop = assay: Test Example 3: herbicidal effect by foliage application, Wagner pot (Table 18, symbol D); format: in vivo, chinese sprangletop (Leptochloa chinensis)
# Method in brief: as §2
# rice flat sedge = assay: Test Example 3: herbicidal effect by foliage application, Wagner pot (Table 18, symbol E); format: in vivo, rice flat sedge (Cyperus iria)
# Method in brief: as §2
# southern crabgrass [2] = assay: Test Example 4: herbicidal effect by soil treatment (Table 19, symbol F); format: in vivo, southern crabgrass (Digitaria ciliaris); details: AAH 320 g/ha
# Method in brief: (§3)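 Emulsion of test compound, water-diluted to predetermined amount, sprayed on soil after sowing (seed depth ~1.5 cm, sterilized diluvial soil). Greenhouse, 25–30° C. Effect graded at three weeks post-spray.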
# green foxtail [3] = assay: Test Example 4: herbicidal effect by soil treatment (Table 19, symbol G); format: in vivo, green foxtail (Setaria viridis); details: AAH 320 g/ha
# Method in brief: as §3
# barnyard grass [4] = assay: Test Example 4: herbicidal effect by soil treatment (Table 19, symbol H); format: in vivo, barnyard grass (Echinochloa crus-galli); details: AAH 320 g/ha
# Method in brief: as §3
# wild oat [5] = assay: Test Example 4: herbicidal effect by soil treatment (Table 19, symbol I); format: in vivo, wild oat (Avena fatua); details: AAH 320 g/ha
# Method in brief: as §3
# Italian ryegrass [6] = assay: Test Example 4: herbicidal effect by soil treatment (Table 19, symbol K); format: in vivo, Italian ryegrass (Lolium multiflorum); details: AAH 320 g/ha
# Method in brief: as §3
# windgrass [7] = assay: Test Example 4: herbicidal effect by soil treatment (Table 19, symbol L); format: in vivo, windgrass (Apera spica-venti); details: AAH 320 g/ha
# Method in brief: as §3
# velvetleaf [8] = assay: Test Example 4: herbicidal effect by soil treatment (Table 19, symbol M); format: in vivo, velvetleaf (Abutilon theophrasti); details: AAH 320 g/ha
# Method in brief: as §3
# redroot pigweed [9] = assay: Test Example 4: herbicidal effect by soil treatment (Table 19, symbol N); format: in vivo, redroot pigweed (Amaranthus retroflexus); details: AAH 320 g/ha
# Method in brief: as §3
# lambsquarters [10] = assay: Test Example 4: herbicidal effect by soil treatment (Table 19, symbol O); format: in vivo, lambsquarters (Chenopodium album); details: AAH 320 g/ha
# Method in brief: as §3
# chickweed [11] = assay: Test Example 4: herbicidal effect by soil treatment (Table 19, symbol P); format: in vivo, common chickweed (Stellaria media); details: AAH 320 g/ha
# Method in brief: as §3
# persian speedwell [12] = assay: Test Example 4: herbicidal effect by soil treatment (Table 19, symbol R); format: in vivo, Persian speedwell (Veronica persica); details: AAH 320 g/ha
# Method in brief: as §3
# southern crabgrass [13] = assay: Test Example 5: herbicidal effect by foliage application, plastic box (Table 20, symbol F); format: in vivo, southern crabgrass (Digitaria ciliaris); details: foliage application, three weeks after application
# Method in brief: (§4)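 Post-emergence foliar test in sterilized diluvial soil. Compound applied as water-diluted emulsion at a predetermined rate to 14-day-old plants; evaluation at three weeks.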
# green foxtail [14] = assay: Test Example 5: herbicidal effect by foliage application, plastic box (Table 20, symbol G); format: in vivo, green foxtail (Setaria viridis); details: foliage application, three weeks after application
# Method in brief: as §4
# barnyard grass [15] = assay: Test Example 5: herbicidal effect by foliage application, plastic box (Table 20, symbol H); format: in vivo, barnyard grass (Echinochloa crus-galli); details: foliage application, three weeks after application
# Method in brief: as §4
# wild oat [16] = assay: Test Example 5: herbicidal effect by foliage application, plastic box (Table 20, symbol I); format: in vivo, wild oat (Avena fatua); details: foliage application, three weeks after application
# Method in brief: as §4
# blackgrass = assay: Test Example 5: herbicidal effect by foliage application, plastic box (Table 20, symbol J); format: in vivo, blackgrass (Alopecurus myosuroides); details: foliage application, three weeks after application
# Method in brief: as §4
# Italian ryegrass [17] = assay: Test Example 5: herbicidal effect by foliage application, plastic box (Table 20, symbol K); format: in vivo, Italian ryegrass (Lolium multiflorum); details: foliage application, three weeks after application
# Method in brief: as §4
# windgrass [18] = assay: Test Example 5: herbicidal effect by foliage application, plastic box (Table 20, symbol L); format: in vivo, windgrass (Apera spica-venti); details: foliage application, three weeks after application
# Method in brief: as §4
# velvetleaf [19] = assay: Test Example 5: herbicidal effect by foliage application, plastic box (Table 20, symbol M); format: in vivo, velvetleaf (Abutilon theophrasti); details: foliage application, three weeks after application
# Method in brief: as §4
# redroot pigweed [20] = assay: Test Example 5: herbicidal effect by foliage application, plastic box (Table 20, symbol N); format: in vivo, redroot pigweed (Amaranthus retroflexus); details: foliage application, three weeks after application
# Method in brief: as §4
# lambsquarters [21] = assay: Test Example 5: herbicidal effect by foliage application, plastic box (Table 20, symbol O); format: in vivo, lambsquarters (Chenopodium album); details: foliage application, three weeks after application
# Method in brief: as §4
# chickweed [22] = assay: Test Example 5: herbicidal effect by foliage application, plastic box (Table 20, symbol P); format: in vivo, common chickweed (Stellaria media); details: foliage application, three weeks after application
# Method in brief: as §4
# false cleavers = assay: Test Example 5: herbicidal effect by foliage application, plastic box (Table 20, symbol Q); format: in vivo, false cleavers (Galium spurium); details: foliage application, three weeks after application
# Method in brief: as §4
# persian speedwell [23] = assay: Test Example 5: herbicidal effect by foliage application, plastic box (Table 20, symbol R); format: in vivo, Persian speedwell (Veronica persica); details: foliage application, three weeks after application
# Method in brief: as §4
# [24] = amount of applied herbicide 49 g/ha
# [25] = amount of applied herbicide 45 g/ha
structure (smiles),measurement,setting,value
Cc1nn(C)c(=O)c(-c2c(-c3ccccc3OCC3CC3)sc3ccccc23)c1O [1-113],Herbicidal effect on A: late watergrass (grade 0-5),late watergrass; 320 g/ha applied herbicide,3 (Herbicidal rate of 40% or more and less than 70%)
same,Herbicidal effect on B: Japanese bulrush (grade 0-5),Japanese bulrush; 320 g/ha applied herbicide,0 (Herbicidal rate of 5% or less (almost no effect))
same,Herbicidal effect on C: oval-leafed pondweed (grade 0-5),oval-leafed pondweed; 320 g/ha applied herbicide,0 (Herbicidal rate of 5% or less (almost no effect))
same,"herbicidal effect on H (barnyard grass), rating 0-5",barnyard grass [1]; 320 g/ha,4 (Herbicidal rate of 70% or more and less than 90%)
same,"herbicidal effect on D (Chinese sprangletop), rating 0-5",Chinese sprangletop; 320 g/ha,0 (Herbicidal rate of 5% or less (almost no effect))
same,"herbicidal effect on E (rice flat sedge), rating 0-5",rice flat sedge; 320 g/ha,3 (Herbicidal rate of 40% or more and less than 70%)
same,"F: southern crabgrass, herbicidal effect rating",southern crabgrass [2],2 (Herbicidal rate of 20% or more and less than 40%)
same,"G: green foxtail, herbicidal effect rating",green foxtail [3],1 (Herbicidal rate of 5% or more and less than 20%)
same,"H: barnyard grass, herbicidal effect rating",barnyard grass [4],3 (Herbicidal rate of 40% or more and less than 70%)
same,"I: wild oat, herbicidal effect rating",wild oat [5],1 (Herbicidal rate of 5% or more and less than 20%)
same,"K: Italian ryegrass, herbicidal effect rating",Italian ryegrass [6],0 (Herbicidal rate of 5% or less (almost no effect))
same,"L: windgrass, herbicidal effect rating",windgrass [7],0 (Herbicidal rate of 5% or less (almost no effect))
same,"M: velvetleaf, herbicidal effect rating",velvetleaf [8],0 (Herbicidal rate of 5% or less (almost no effect))
same,"N: redroot pigweed, herbicidal effect rating",redroot pigweed [9],3 (Herbicidal rate of 40% or more and less than 70%)
same,"O: lambsquarters, herbicidal effect rating",lambsquarters [10],2 (Herbicidal rate of 20% or more and less than 40%)
same,"P: chickweed, herbicidal effect rating",chickweed [11],4 (Herbicidal rate of 70% or more and less than 90%)
same,"R: persian speedwell, herbicidal effect rating",persian speedwell [12],5 (Herbicidal rate of 90% or more (almost completely withered))
same,"F: southern crabgrass, herbicidal effect",southern crabgrass [13]; AAH 320 g/ha,0 (Herbicidal rate of 5% or less (almost no effect))
same,"G: green foxtail, herbicidal effect",green foxtail [14]; AAH 320 g/ha,0 (Herbicidal rate of 5% or less (almost no effect))
same,"H: barnyard grass, herbicidal effect",barnyard grass [15]; AAH 320 g/ha,1 (Herbicidal rate of 5% or more and less than 20%)
same,"I: wild oat, herbicidal effect",wild oat [16]; AAH 320 g/ha,1 (Herbicidal rate of 5% or more and less than 20%)
same,"J: blackgrass, herbicidal effect",blackgrass; AAH 320 g/ha,3 (Herbicidal rate of 40% or more and less than 70%)
same,"K: Italian ryegrass, herbicidal effect",Italian ryegrass [17]; AAH 320 g/ha,1 (Herbicidal rate of 5% or more and less than 20%)
same,"L: windgrass, herbicidal effect",windgrass [18]; AAH 320 g/ha,2 (Herbicidal rate of 20% or more and less than 40%)
same,"M: velvetleaf, herbicidal effect",velvetleaf [19]; AAH 320 g/ha,3 (Herbicidal rate of 40% or more and less than 70%)
same,"N: redroot pigweed, herbicidal effect",redroot pigweed [20]; AAH 320 g/ha,0 (Herbicidal rate of 5% or less (almost no effect))
same,"O: lambsquarters, herbicidal effect",lambsquarters [21]; AAH 320 g/ha,0 (Herbicidal rate of 5% or less (almost no effect))
same,"P: chickweed, herbicidal effect",chickweed [22]; AAH 320 g/ha,5 (Herbicidal rate of 90% or more (almost completely withered))
same,"Q: false cleavers, herbicidal effect",false cleavers; AAH 320 g/ha,5 (Herbicidal rate of 90% or more (almost completely withered))
same,"R: persian speedwell, herbicidal effect",persian speedwell [23]; AAH 320 g/ha,5 (Herbicidal rate of 90% or more (almost completely withered))
CCCC(=O)Oc1c(C)nn(C)c(=O)c1-c1c(-c2ccc(C(C)=NOC)cc2)sc2cc(F)ccc12 [3-018],"Herbicidal effect, A: late watergrass",late watergrass; [24],3 (Herbicidal rate of 40% or more and less than 70%)
same,"Herbicidal effect, B: Japanese bulrush",Japanese bulrush; [24],2 (Herbicidal rate of 20% or more and less than 40%)
same,"Herbicidal effect, C: oval-leafed pondweed",oval-leafed pondweed; [24],0 (Herbicidal rate of 5% or less (almost no effect))
same,herbicidal effect on H: barnyard grass,barnyard grass [1]; [25],3 (Herbicidal rate of 40% or more and less than 70%)
same,herbicidal effect on D: Chinese sprangletop,Chinese sprangletop; [25],0 (Herbicidal rate of 5% or less (almost no effect))
same,herbicidal effect on E: rice flat sedge,rice flat sedge; [25],2 (Herbicidal rate of 20% or more and less than 40%)
same,"F: southern crabgrass, herbicidal effect grade",southern crabgrass [13]; 45 g/ha,0 (Herbicidal rate of 5% or less (almost no effect))
same,"G: green foxtail, herbicidal effect grade",green foxtail [14]; 45 g/ha,0 (Herbicidal rate of 5% or less (almost no effect))
same,"H: barnyard grass, herbicidal effect grade",barnyard grass [15]; 45 g/ha,0 (Herbicidal rate of 5% or less (almost no effect))
same,"I: wild oat, herbicidal effect grade",wild oat [16]; 45 g/ha,0 (Herbicidal rate of 5% or less (almost no effect))
same,"J: blackgrass, herbicidal effect grade",blackgrass; 45 g/ha,0 (Herbicidal rate of 5% or less (almost no effect))
same,"K: Italian ryegrass, herbicidal effect grade",Italian ryegrass [17]; 45 g/ha,0 (Herbicidal rate of 5% or less (almost no effect))
same,"L: windgrass, herbicidal effect grade",windgrass [18]; 45 g/ha,0 (Herbicidal rate of 5% or less (almost no effect))
same,"M: velvetleaf, herbicidal effect grade",velvetleaf [19]; 45 g/ha,0 (Herbicidal rate of 5% or less (almost no effect))
same,"N: redroot pigweed, herbicidal effect grade",redroot pigweed [20]; 45 g/ha,3 (Herbicidal rate of 40% or more and less than 70%)
same,"O: lambsquarters, herbicidal effect grade",lambsquarters [21]; 45 g/ha,1 (Herbicidal rate of 5% or more and less than 20%)
same,"P: chickweed, herbicidal effect grade",chickweed [22]; 45 g/ha,1 (Herbicidal rate of 5% or more and less than 20%)
same,"Q: false cleavers, herbicidal effect grade",false cleavers; 45 g/ha,0 (Herbicidal rate of 5% or less (almost no effect))
same,"R: persian speedwell, herbicidal effect grade",persian speedwell [23]; 45 g/ha,3 (Herbicidal rate of 40% or more and less than 70%)

# Source: US20230085307A1, “PYRIDAZINONE COMPOUND AND HERBICIDE” (NISSAN CHEMICAL CORPORATION, priority 2019, published 2023)
